Experimental data published in patent US8216802B2, “Detection medium for gram negative bacteria” (Biomerieux, priority 2007, dated 2012).

Key:
Type in all cases: cell-based
Citrobacter freundii 022 [1] = test: Colony coloration on CPS ID 3 medium with cellobiose; details: 37° C.
Method: (§1) Various concentrations of cellobiose (0-100-350-1000 mg/l) are added to the CPS ID 3 medium (bioMérieux). These media contain 6-chloro-3-indolyl-beta-glucuronide at 250 mg/l and 5-bromo-4-chloro-3-indolyl-beta-glucoside at 50 mg/l. These media are distributed in a proportion of 20 ml per Petri dish. Microorganisms derived from the applicant's collection were inoculated on these media by semi-quantitative isolation of 10 μl of a suspension at 0.5 McFarland, diluted to 1/20. The dishes were incubated at 37° C. for 48 hours. The colonies formed were examined visually after 24 and 48 hours of incubation. The coloration of these colonies was noted.

Citrobacter freundii 031 [2] = test: as above; details: 37° C.
Method: as §1

Citrobacter freundii 104 [3] = test: as above; details: 37° C.
Method: as §1

[4] = system: Enterococcus faecalis 117; test: as above; details: 37° C.
Method: as §1

Escherichia coli 003 [5] = test: as above; details: 37° C.
Method: as §1

Escherichia coli 407 = test: as above; details: 37° C.
Method: as §1

[6] = system: Klebsiella pneumoniae 111; test: as above; details: 37° C.
Method: as §1

Serratia marcescens 112 [7] = test: as above; details: 37° C.
Method: as §1

Citrobacter freundii 022 [8] = test: Colony coloration on supplemented Trypticase Soy medium with cellobiose; details: 37° C.
Method: (§2) Various concentrations of cellobiose (0-0.1-1-5-10 g/l) are added to Trypticase Soy medium (bioMérieux) supplemented with 5-bromo-6-chloro-3-indolyl-beta-galactoside at 50 mg/l and with 5-bromo-4-chloro-3-indolyl-beta-glucoside at 50 mg/l. These media are distributed in a proportion of 20 ml per Petri dish. Microorganisms derived from the applicant's collection were inoculated on these media by semi-quantitative isolation of 10 μl of a suspension at 0.5 McFarland, diluted to 1/20. The dishes were incubated at 37° C. for 48 hours. The colonies formed were examined visually after 24 and 48 hours of incubation. The coloration of these colonies was noted.

Citrobacter freundii 031 [9] = test: as above; details: 37° C.
Method: as §2

Citrobacter freundii 104 [10] = test: as above; details: 37° C.
Method: as §2

[11] = system: Enterococcus faecalis 117; test: as above; details: 37° C.
Method: as §2

Escherichia coli 003 [12] = test: as above; details: 37° C.
Method: as §2

Escherichia coli 018 = test: as above; details: 37° C.
Method: as §2

[13] = system: Klebsiella pneumoniae 111; test: as above; details: 37° C.
Method: as §2

Serratia marcescens 112 [14] = test: as above; details: 37° C.
Method: as §2

Citrobacter strains [15] = test: Colony coloration on CPS ID 3 medium with cellobiose (text summary); details: in the presence of cellobiose
Method: as §1

Citrobacter strains [16] = test: Colony coloration on supplemented Trypticase Soy medium with cellobiose (text summary)
Method: as §2

With `O=C[C@H](O)[C@@H](O)[C@H](O[C@@H]1O[C@H](CO)[C@@H](O)[C@H](O)[C@H]1O)[C@H](O)CO` [Cellobiose, cellobiose] the colony coloration (Citrobacter freundii 022 [1]; cellobiose 100 mg/l, 24 h) was “Violet”, the colony coloration (Citrobacter freundii 022 [1]; cellobiose 100 mg/l, 48 h) was “Violet” and the colony coloration (Citrobacter freundii 022 [1]; cellobiose 350 mg/l, 24 h) was “Violet”. The colony coloration (Citrobacter freundii 022 [1]; cellobiose 350 mg/l, 48 h) was “Violet”, the colony coloration (Citrobacter freundii 022 [1]; cellobiose 1000 mg/l, 24 h) was “Violet” and the colony coloration (Citrobacter freundii 022 [1]; cellobiose 1000 mg/l, 48 h) was “Violet”. The colony coloration (Citrobacter freundii 031 [2]; cellobiose 100 mg/l, 24 h) was “Green”, the colony coloration (Citrobacter freundii 031 [2]; cellobiose 100 mg/l, 48 h) was “Green” and the colony coloration (Citrobacter freundii 031 [2]; cellobiose 350 mg/l, 24 h) was “Green”. The colony coloration (Citrobacter freundii 031 [2]; cellobiose 350 mg/l, 48 h) was “Green”, the colony coloration (Citrobacter freundii 031 [2]; cellobiose 1000 mg/l, 24 h) was “Colorless” and the colony coloration (Citrobacter freundii 031 [2]; cellobiose 1000 mg/l, 48 h) was “Green”. For the same compound, the colony coloration (Citrobacter freundii 104 [3]; cellobiose 100 mg/l, 24 h) was “Green”, the colony coloration (Citrobacter freundii 104 [3]; cellobiose 100 mg/l, 48 h) was “Green” and the colony coloration (Citrobacter freundii 104 [3]; cellobiose 350 mg/l, 24 h) was “Green”. The colony coloration (Citrobacter freundii 104 [3]; cellobiose 350 mg/l, 48 h) was “Green”, the colony coloration (Citrobacter freundii 104 [3]; cellobiose 1000 mg/l, 24 h) was “Green” and the colony coloration (Citrobacter freundii 104 [3]; cellobiose 1000 mg/l, 48 h) was “Green”. The colony coloration ([4]; cellobiose 100 mg/l, 24 h) was “Turquoise”, the colony coloration ([4]; cellobiose 100 mg/l, 48 h) was “Turquoise” and the colony coloration ([4]; cellobiose 350 mg/l, 24 h) was “Turquoise”. The colony coloration ([4]; cellobiose 350 mg/l, 48 h) was “Turquoise”, the colony coloration ([4]; cellobiose 1000 mg/l, 24 h) was “Turquoise” and the colony coloration ([4]; cellobiose 1000 mg/l, 48 h) was “Turquoise”. The colony coloration (Escherichia coli 003 [5]; cellobiose 100 mg/l, 24 h) was “Pink”, the colony coloration (Escherichia coli 003 [5]; cellobiose 100 mg/l, 48 h) was “Red” and the colony coloration (Escherichia coli 003 [5]; cellobiose 350 mg/l, 24 h) was “Pink”. For the same compound, the colony coloration (Escherichia coli 003 [5]; cellobiose 350 mg/l, 48 h) was “Red”, the colony coloration (Escherichia coli 003 [5]; cellobiose 1000 mg/l, 24 h) was “Pink” and the colony coloration (Escherichia coli 003 [5]; cellobiose 1000 mg/l, 48 h) was “Red”. For the same compound, the colony coloration (Escherichia coli 407; cellobiose 100 mg/l, 24 h) was “Pink”, the colony coloration (Escherichia coli 407; cellobiose 100 mg/l, 48 h) was “Red” and the colony coloration (Escherichia coli 407; cellobiose 350 mg/l, 24 h) was “Pink”. For the same compound, the colony coloration (Escherichia coli 407; cellobiose 350 mg/l, 48 h) was “Red”, the colony coloration (Escherichia coli 407; cellobiose 1000 mg/l, 24 h) was “Pink” and the colony coloration (Escherichia coli 407; cellobiose 1000 mg/l, 48 h) was “Red”. For the same compound, the colony coloration ([6]; cellobiose 100 mg/l, 24 h) was “Turquoise”, the colony coloration ([6]; cellobiose 100 mg/l, 48 h) was “Turquoise” and the colony coloration ([6]; cellobiose 350 mg/l, 24 h) was “Turquoise”. For the same compound, the colony coloration ([6]; cellobiose 350 mg/l, 48 h) was “Turquoise”, the colony coloration ([6]; cellobiose 1000 mg/l, 24 h) was “Turquoise” and the colony coloration ([6]; cellobiose 1000 mg/l, 48 h) was “Turquoise”. For the same compound, the colony coloration (Serratia marcescens 112 [7]; cellobiose 100 mg/l, 24 h) was “Turquoise”, the colony coloration (Serratia marcescens 112 [7]; cellobiose 100 mg/l, 48 h) was “Turquoise” and the colony coloration (Serratia marcescens 112 [7]; cellobiose 350 mg/l, 24 h) was “Turquoise”. The colony coloration (Serratia marcescens 112 [7]; cellobiose 350 mg/l, 48 h) was “Turquoise”, the colony coloration (Serratia marcescens 112 [7]; cellobiose 1000 mg/l, 24 h) was “Turquoise” and the colony coloration (Serratia marcescens 112 [7]; cellobiose 1000 mg/l, 48 h) was “Turquoise”. The colony coloration (Citrobacter freundii 022 [8]; cellobiose 0.1 g/l, 24 h) was “Violet”, the colony coloration (Citrobacter freundii 022 [8]; cellobiose 0.1 g/l, 48 h) was “Blue” and the colony coloration (Citrobacter freundii 022 [8]; cellobiose 1 g/l, 24 h) was “Violet”. For the same compound, the colony coloration (Citrobacter freundii 022 [8]; cellobiose 1 g/l, 48 h) was “Blue”, the colony coloration (Citrobacter freundii 022 [8]; cellobiose 5 g/l, 24 h) was “Pink” and the colony coloration (Citrobacter freundii 022 [8]; cellobiose 5 g/l, 48 h) was “Blue”. For the same compound, the colony coloration (Citrobacter freundii 022 [8]; cellobiose 10 g/l, 24 h) was “Mauve”, the colony coloration (Citrobacter freundii 022 [8]; cellobiose 10 g/l, 48 h) was “Mauve” and the colony coloration (Citrobacter freundii 031 [9]; cellobiose 0.1 g/l, 24 h) was “Violet”. For the same compound, the colony coloration (Citrobacter freundii 031 [9]; cellobiose 0.1 g/l, 48 h) was “Green”, the colony coloration (Citrobacter freundii 031 [9]; cellobiose 1 g/l, 24 h) was “Mauve” and the colony coloration (Citrobacter freundii 031 [9]; cellobiose 1 g/l, 48 h) was “Green”. For the same compound, the colony coloration (Citrobacter freundii 031 [9]; cellobiose 5 g/l, 24 h) was “Mauve”, the colony coloration (Citrobacter freundii 031 [9]; cellobiose 5 g/l, 48 h) was “Green” and the colony coloration (Citrobacter freundii 031 [9]; cellobiose 10 g/l, 24 h) was “Mauve”. For the same compound, the colony coloration (Citrobacter freundii 031 [9]; cellobiose 10 g/l, 48 h) was “Mauve”, the colony coloration (Citrobacter freundii 104 [10]; cellobiose 0.1 g/l, 24 h) was “Violet” and the colony coloration (Citrobacter freundii 104 [10]; cellobiose 0.1 g/l, 48 h) was “Green”. The colony coloration (Citrobacter freundii 104 [10]; cellobiose 1 g/l, 24 h) was “Violet”, the colony coloration (Citrobacter freundii 104 [10]; cellobiose 1 g/l, 48 h) was “Green” and the colony coloration (Citrobacter freundii 104 [10]; cellobiose 5 g/l, 24 h) was “Mauve”. The colony coloration (Citrobacter freundii 104 [10]; cellobiose 5 g/l, 48 h) was “Green”, the colony coloration (Citrobacter freundii 104 [10]; cellobiose 10 g/l, 24 h) was “Mauve” and the colony coloration (Citrobacter freundii 104 [10]; cellobiose 10 g/l, 48 h) was “Mauve”. The colony coloration ([11]; cellobiose 0.1 g/l, 24 h) was “Turquoise”, the colony coloration ([11]; cellobiose 0.1 g/l, 48 h) was “Turquoise” and the colony coloration ([11]; cellobiose 1 g/l, 24 h) was “Turquoise”. The colony coloration ([11]; cellobiose 1 g/l, 48 h) was “Turquoise”, the colony coloration ([11]; cellobiose 5 g/l, 24 h) was “Turquoise” and the colony coloration ([11]; cellobiose 5 g/l, 48 h) was “Turquoise”. For the same compound, the colony coloration ([11]; cellobiose 10 g/l, 24 h) was “Turquoise”, the colony coloration ([11]; cellobiose 10 g/l, 48 h) was “Turquoise” and the colony coloration (Escherichia coli 003 [12]; cellobiose 0.1 g/l, 24 h) was “Mauve”. The colony coloration (Escherichia coli 003 [12]; cellobiose 0.1 g/l, 48 h) was “Mauve”, the colony coloration (Escherichia coli 003 [12]; cellobiose 1 g/l, 24 h) was “Mauve” and the colony coloration (Escherichia coli 003 [12]; cellobiose 1 g/l, 48 h) was “Mauve”. The colony coloration (Escherichia coli 003 [12]; cellobiose 5 g/l, 24 h) was “Mauve”, the colony coloration (Escherichia coli 003 [12]; cellobiose 5 g/l, 48 h) was “Mauve” and the colony coloration (Escherichia coli 003 [12]; cellobiose 10 g/l, 24 h) was “Mauve”. The colony coloration (Escherichia coli 003 [12]; cellobiose 10 g/l, 48 h) was “Mauve”, the colony coloration (Escherichia coli 018; cellobiose 0.1 g/l, 24 h) was “Mauve” and the colony coloration (Escherichia coli 018; cellobiose 0.1 g/l, 48 h) was “Mauve”. The colony coloration (Escherichia coli 018; cellobiose 1 g/l, 24 h) was “Mauve”, the colony coloration (Escherichia coli 018; cellobiose 1 g/l, 48 h) was “Mauve” and the colony coloration (Escherichia coli 018; cellobiose 5 g/l, 24 h) was “Mauve”. For the same compound, the colony coloration (Escherichia coli 018; cellobiose 5 g/l, 48 h) was “Mauve”, the colony coloration (Escherichia coli 018; cellobiose 10 g/l, 24 h) was “Mauve” and the colony coloration (Escherichia coli 018; cellobiose 10 g/l, 48 h) was “Mauve”. The colony coloration ([13]; cellobiose 0.1 g/l, 24 h) was “Green”, the colony coloration ([13]; cellobiose 0.1 g/l, 48 h) was “Blue” and the colony coloration ([13]; cellobiose 1 g/l, 24 h) was “Green”. The colony coloration ([13]; cellobiose 1 g/l, 48 h) was “Blue”, the colony coloration ([13]; cellobiose 5 g/l, 24 h) was “Turquoise” and the colony coloration ([13]; cellobiose 5 g/l, 48 h) was “Blue”. For the same compound, the colony coloration ([13]; cellobiose 10 g/l, 24 h) was “Turquoise”, the colony coloration ([13]; cellobiose 10 g/l, 48 h) was “Blue” and the colony coloration (Serratia marcescens 112 [14]; cellobiose 0.1 g/l, 24 h) was “Green”. For the same compound, the colony coloration (Serratia marcescens 112 [14]; cellobiose 0.1 g/l, 48 h) was “Blue”, the colony coloration (Serratia marcescens 112 [14]; cellobiose 1 g/l, 24 h) was “Green” and the colony coloration (Serratia marcescens 112 [14]; cellobiose 1 g/l, 48 h) was “Blue”. For the same compound, the colony coloration (Serratia marcescens 112 [14]; cellobiose 5 g/l, 24 h) was “Green”, the colony coloration (Serratia marcescens 112 [14]; cellobiose 5 g/l, 48 h) was “Blue” and the colony coloration (Serratia marcescens 112 [14]; cellobiose 10 g/l, 24 h) was “Turquoise”. The colony coloration (Serratia marcescens 112 [14]; cellobiose 10 g/l, 48 h) was “Blue”, the “coloration of the colonies (beta-glucosidase activity expressed)” value (Citrobacter strains [15]) was “green to violet coloration” and the “differentiation of C. freundii from E. coli” value (Citrobacter strains [16]; cellobiose concentrations above 5 g/l) was “less marked”. The “coloration of the colonies (beta-glucosidase activity expressed)” value (Citrobacter strains [16]; in the presence of cellobiose, supplemented Trypticase Soy medium) was “green to violet coloration”.
